From ChEMBL document CHEMBL4665735, “Discovery of a d-pro-lys peptidomimetic inhibitor of MMP9: Addressing the gelatinase selectivity beyond S1' subsite” (Bioorg Med Chem Lett, 2020)

Experiments:
[1] = biological target: 72 kDa type IV collagenase (Homo sapiens, UniProt P08253); assay: Inhibition of MMP2 (unknown origin) using Mca-Lys-Pro-Leu-GlyLeu-Dpa-Ala-Arg-NH2 as substrate by fluorometric assay
[2] = biological target: Matrix metalloproteinase-9 (Homo sapiens, UniProt P14780); assay: Inhibition of MMP9 (unknown origin) using Mca-Lys-Pro-Leu-GlyLeu-Dpa-Ala-Arg-NH2 as substrate by fluorometric assay
Sequence of Matrix metalloproteinase-9 (P14780 whole entry): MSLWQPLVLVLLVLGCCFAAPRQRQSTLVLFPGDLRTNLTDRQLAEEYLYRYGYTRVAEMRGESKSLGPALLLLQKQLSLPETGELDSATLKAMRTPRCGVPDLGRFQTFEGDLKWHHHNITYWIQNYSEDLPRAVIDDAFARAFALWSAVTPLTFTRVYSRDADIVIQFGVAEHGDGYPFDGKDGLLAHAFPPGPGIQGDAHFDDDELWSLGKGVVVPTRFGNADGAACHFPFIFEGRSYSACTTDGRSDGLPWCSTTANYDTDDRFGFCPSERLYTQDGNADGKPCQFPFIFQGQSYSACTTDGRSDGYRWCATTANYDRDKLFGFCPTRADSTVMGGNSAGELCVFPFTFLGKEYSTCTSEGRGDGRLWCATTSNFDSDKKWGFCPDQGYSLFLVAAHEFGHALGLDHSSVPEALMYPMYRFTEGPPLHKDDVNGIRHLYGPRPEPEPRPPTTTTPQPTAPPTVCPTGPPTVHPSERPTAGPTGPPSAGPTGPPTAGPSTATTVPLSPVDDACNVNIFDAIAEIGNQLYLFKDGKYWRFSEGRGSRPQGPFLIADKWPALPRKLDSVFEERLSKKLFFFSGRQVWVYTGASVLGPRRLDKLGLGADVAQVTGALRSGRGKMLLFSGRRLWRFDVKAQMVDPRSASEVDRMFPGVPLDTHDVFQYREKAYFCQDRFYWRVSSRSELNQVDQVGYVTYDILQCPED

Sequence of 72 kDa type IV collagenase (P08253 whole entry): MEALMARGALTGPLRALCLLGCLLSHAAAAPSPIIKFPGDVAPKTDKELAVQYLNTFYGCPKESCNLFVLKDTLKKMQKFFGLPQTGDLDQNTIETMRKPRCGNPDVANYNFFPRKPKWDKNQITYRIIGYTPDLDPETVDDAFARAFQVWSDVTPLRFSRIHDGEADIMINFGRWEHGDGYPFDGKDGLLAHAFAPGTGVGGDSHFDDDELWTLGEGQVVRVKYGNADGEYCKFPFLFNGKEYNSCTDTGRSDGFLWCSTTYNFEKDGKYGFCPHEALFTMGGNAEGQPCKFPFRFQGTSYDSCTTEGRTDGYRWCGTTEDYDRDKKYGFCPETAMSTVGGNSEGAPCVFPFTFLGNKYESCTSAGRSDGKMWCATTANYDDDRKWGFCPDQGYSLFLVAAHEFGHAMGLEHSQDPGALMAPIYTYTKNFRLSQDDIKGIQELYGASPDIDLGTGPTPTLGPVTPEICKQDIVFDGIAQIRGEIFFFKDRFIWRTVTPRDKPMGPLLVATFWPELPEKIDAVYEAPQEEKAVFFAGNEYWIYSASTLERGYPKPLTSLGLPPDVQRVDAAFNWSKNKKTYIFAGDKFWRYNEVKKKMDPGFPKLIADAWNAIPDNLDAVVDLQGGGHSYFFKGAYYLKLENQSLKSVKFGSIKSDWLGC

SMILES | IC50 [1] | IC50 [2]
COc1ccc(S(=O)(=O)N2C[C@H](NC(=O)C(C)(C)C)C[C@@H]2C(=O)NO)cc1 | 26 nM | 13 nM
CCCC[C@H](NC(=O)OC(C)(C)C)C(=O)N[C@@H]1C[C@H](C(=O)NO)N(S(=O)(=O)c2ccc(OC)cc2)C1 | 87 nM | 131 nM
COc1ccc(S(=O)(=O)N2C[C@H](NC(=O)[C@H](CCCN)NC(=O)OC(C)(C)C)C[C@@H]2C(=O)NO)cc1 | 1320 nM | 3420 nM
COc1ccc(S(=O)(=O)N2CCC[C@@H]2C(=O)NO)cc1 | – | 22 nM
COc1ccc(S(=O)(=O)N2C[C@H](NC(=O)[C@H](CCCCN)NC(=O)OC(C)(C)C)C[C@@H]2C(=O)NO)cc1 | 432 nM | 27 nM

The remaining lines, values ahead:

IC50 [1] | IC50 [2] | SMILES
302 nM | 53 nM | COc1ccc(S(=O)(=O)N2C[C@H](NC(=O)CCCN)C[C@@H]2C(=O)NO)cc1
1260 nM | 5.7 nM | COc1ccc(S(=O)(=O)N2C[C@H](NC(=O)[C@@H](N)CCCCN)C[C@@H]2C(=O)NO)cc1
15 nM | 154 nM | COc1ccc(S(=O)(=O)N2C[C@H](NC(=O)[C@@H](N)CCCN)C[C@@H]2C(=O)NO)cc1
62 nM | 98 nM | CCCC[C@H](N)C(=O)N[C@@H]1C[C@H](C(=O)NO)N(S(=O)(=O)c2ccc(OC)cc2)C1
91 nM | 49 nM | COc1ccc(S(=O)(=O)N2C[C@H](NC(=O)CCCNC(=O)OC(C)(C)C)C[C@@H]2C(=O)NO)cc1
